Measured values reported in publication PMC10082216 (Nature Communications, 2023).

Assay: Population PK modeling and simulation of TD-6450 (NONMEM)
Design: species or system human
Source text: Data were pooled from two healthy volunteer studies, one single ascending dose (SAD) and the other multiple ascending dose (MAD). Observed concentration data were transformed into their natural logarithms and evaluated using nonlinear mixed-effects modeling in NONMEM v7.4 (Icon Development Solution, Ellicott City, MD). Pirana v3.0, Perl-speaks-NONMEM (PsN) v4.8.1, and Xpose version 4.7.1, were used for automation, model evaluation, and diagnostics during the model building process.
Different structural distribution models were evaluated (1-, 2-, and 3-compartment models) as well as different absorption models (first-order absorption and transit-compartment (n = 1–10) models). Relative bioavailability was fixed to unity for the population to evaluate inter-individual variability and the influence of covariates in the same parameter. […] Other biologically plausible covariate-parameter relationships (i.e. sex and age on all parameters, dose amount and duration of treatment on elimination clearance, absorption rate and relative bioavailability, concomitant food intake on absorption rate and relative bioavailability, and creatinine clearance on elimination clearance) were evaluated with a stepwise addition (p < 0.05) and elimination (p < 0.001) approach. All significant covariates in the forward step were evaluated with both linear and nonlinear functions, and the best-performing model was retained for the backward elimination step. Pharmacokinetic parameters were assumed to be log-normally distributed, and inter-individual variability (IIV) and inter-occasion variability (IOV) were implemented as exponential functions. Estimated IIV below 10% was removed in the final model, and IOV was estimated only on absorption parameters.
Model fit was evaluated primarily by the objective function value (OFV; calculated by NONMEM as proportional to −2 × log-likelihood of the data). Model discrimination between two hierarchical models was determined by a likelihood ratio test, based on the Chi-square distribution of the OFV (i.e. p-value < 0.05 corresponding to ΔOFV > 3.84, at a 1 degree of freedom difference). Goodness-of-fit was used to evaluate the descriptive performances of developed models. Prediction- and variability-corrected visual predictive checks (pvcVPC, n = 2000 simulations) were used to assess the predictive performance of developed models.

[1] = random effect, variance estimate
[2] = residual error, variance estimate
[3] = typical individual 80 kg, steady-state, high oral dose, fasting

CNC(=O)N1C[C@@H](C)N(c2ccc(C(=O)Nc3ccc(-c4ccc(-c5c[nH]c([C@@H]6CCCN6C(=O)[C@@H](NC(=O)OC)C(C)C)n5)cc4)c(OC(F)(F)F)c3)cn2)C[C@@H]1C [TD-6450]
decrease in relative bioavailability per 100 mg increase in dose (above 240 mg (240 to 500 mg)): 24.7% | Dose on CL/F, population estimate (%RSE) (covariate relationship): 1.35 (17.9) | Dose on F, SIR median (95%CI) (covariate relationship): -0.241 (-0.207 to -0.284) | Dose on F, population estimate (%RSE) (covariate relationship): -0.247 (7.92) | Food on F, SIR median (95%CI) (covariate relationship): 0.683 (0.475 to 0.885) | Food on F, population estimate (%RSE) (covariate relationship): 0.685 (15.0) | Food on MTT, SIR median (95%CI) (covariate relationship): 0.927 (0.696 to 1.19) | Food on MTT, population estimate (%RSE) (covariate relationship): 0.933 (10.3) | Time dep. F, SIR median (95%CI) (covariate relationship): 0.441 (0.355 to 0.569) | Time dep. F, population estimate (%RSE) (covariate relationship): 0.439 (12.5) | higher bioavailability when administered with food (food covariate): 68.5% | longer absorption time when administered with food (food covariate): 93.3% | IIV CL/F, population estimate (%RSE) [1]: 0.0148 (21.5) | IIV F, SIR median (95%CI) [1]: 0.151 (0.110 to 0.207) | IIV F, population estimate (%RSE) [1]: 0.150 (16.7) | IIV MTT, SIR median (95%CI) [1]: 0.0683 (0.0551 to 0.0830) | IIV MTT, population estimate (%RSE) [1]: 0.0683 (10.3) | IIV Vc/F, SIR median (95%CI) [1]: 0.0394 (0.0246 to 0.0514) | IIV Vc/F, population estimate (%RSE) [1]: 0.0391 (17.3) | IIV Vp/F, SIR median (95%CI) [1]: 0.0719 (0.0568 to 0.0919) | IIV Vp/F, population estimate (%RSE) [1]: 0.0713 (12.9) | IOV F, SIR median (95%CI) [1]: 0.0622 (0.0445 to 0.0794) | IOV F, population estimate (%RSE) [1]: 0.0631 (13.9) | IOV MTT, SIR median (95%CI) [1]: 0.0870 (0.0613 to 0.118) | IOV MTT, population estimate (%RSE) [1]: 0.0866 (17.1) | RUV, SIR median (95%CI) [2]: 0.0568 (0.0520 to 0.0624) | RUV, population estimate (%RSE) [2]: 0.242 (4.48) | CL/F, SIR median (95%CI) (sampling importance resampling): 12.1 (10.8 to 13.6) L/h | MTT, SIR median (95%CI) (sampling importance resampling): 2.30 (2.13 to 2.50) h | Q/F, SIR median (95%CI) (sampling importance resampling): 28.5 (22.5 to 35.5) L/h | Vc/F, SIR median (95%CI) (sampling importance resampling): 539 (464 to 626) L | Vp/F, SIR median (95%CI) (sampling importance resampling): 445 (384 to 513) L | CL/F, population estimate (%RSE) [3]: 12.1 (6.19) L/h | MTT, population estimate (%RSE) [3]: 2.30 (4.14) h | Q/F, population estimate (%RSE) [3]: 28.4 (11.4) L/h | Vc/F, population estimate (%RSE) [3]: 537 (7.89) L | Vp/F, population estimate (%RSE) [3]: 444 (7.36) L
